In US7790727B2, “Benzenesulfonanilide compounds suitable for treating disorders that respond to modulation of the serotonin 5-HT6 receptor” (Abbott GmbH & Co. KG, priority 2007, dated 2010):
Counter-ions that a name gives are not always drawn.

Target: T1, h-5-HT6 receptor (Homo sapiens, UniProt P50406)
T1 construct: expressed in transfected cells
Experiment: 5-HT6 receptor binding assay (displacement of [3H]-LSD)
Conditions: not given
Protocol: Displacement of radioligands binding to the following cloned human receptors
1. Preparation of Membranes by Ultrasonic Treatment and Differential Centrifugation
Cells from stable clonal cell lines expressing the corresponding receptor (5-HT6, α1-adrenergic, dopamine D2 or histamine H1 receptors) were washed with PBS (w/o Ca^++, Mg^++) and harvested in PBS with 0.02% EDTA. The cells were collected by centrifugation at 500 g for 10 min. at 4° C., washed with PBS and centrifuged (500 g, 10 min. 4° C.). The pellets were stored at −80° C. until use. F or membrane preparation, the thawed cell pellet was resuspended in ice-cold sucrose buffer (0.25 M sucrose, 10 mM Hepes (pH 7.4), 1 mM Phenylmethylsulfonyl fluoride (PMSF) in DMSO, 5 μg/ml Pepstatin-A, 3 mM EDTA, 0.025% Bacitracin) and homogenized with a Branson Sonifier W-250 (Settings: Timer 4; Output Control 3; Duty Cycle constant; 2 to 3 cycles). Cell disruption was checked with the aid of a microscope. Remaining unbroken cells were pelleted at 1.000 g for 10 min. at 4° C. The sucrose buffer supernatant was then centrifuged at 60.000 g for 1 h at 4° C. (Beckman Ultrazentrifuge XL 80). The pellet was resuspended in 30 ml ice-cold Tris buffer (20 mM TRIS (pH 7.4), 5 μg/ml Pepstatin A, 0.1 mM PMSF, 3 mM EDTA) by pipetting through a 10 ml serological pipet and centrifuged for 1 h at 4° C. at 60.000 g. A final resuspension was performed in a small volume of ice-cold Tris buffer (see above) by pressing through a serological pipet followed by ultrasonic treatment with a Branson Sonifier W-250 (Settings: Timer 1; Output Control 3; Duty Cycle constant; 1 cycle). Protein concentration was determined (BCA-Kit; Pierce) and aliquots stored at −80° C. or in liquid nitrogen for long-term storage.
2. Receptor Binding Experiments
All receptor binding experiments were carried out in the corresponding assay buffer in a total volume of 200 μl in the presence of various concentrations of test compound (10^−5 M to 10^−9 M, tenfold serial dilution, duplicate determinations). The assays were terminated by filtration on polyethylenimine (PEI 0.1% or 0.3%) presoaked Packard Unifilter Plates (GF/C or GF/B) with a Tomtec Machill U 96 well-plate harvester. After the plates had been dried for 2 h at 55° C. in a drying chamber scin tillation cocktail (BetaPlate Scint; PerkinElmer) was added. Radioactivity was measured in a Microbeta Trilux two hours after the addition of the scintillation mixture. Data derived from liquid scintillation counting were analysed by iterative non-linear regression analysis with the use of the Statistical Analysis System (SAS): a program similar to “LIGAND” as described by Munson and Rodbard (Analytical Biochemistry 107, 220-239 (1980).
a) 5-HT6 Receptor Binding Assay
HEK293 cells stably expressing the h-5-HT6 receptor (NCBI Reference Sequence XM 001435) were cultured in RPMI1640 medium supplemented with 25 mM HEPES, 10% fetal calf serum and 1-2 mM glutamine. The membrane preparation was performed as described in section 1. […] Non-specific binding was defined with 1 μM methiothepin. The binding reaction was carried out for 3.5 h at room temperature. During the incubation, the plates were shaken on a plate shaker at 100 rpm and terminated by filtration on Packard Unifilter GF/C (0.1% PEI) plates, followed by 2 wash cycles with ice-cold 50 mM Tris-HCl, 5 mM CaCl2.
Data derived from liquid scintillation counting were analyzed by iterative non-linear regression analysis with the use of the Statistical Analysis System (SAS): a program similar to “LIGAND” as described by Munson and Rodbard (Anal. Biochem. 1980, 107, 220-239). Fitting was performed according to formulae described by Feldman (Anal. Biochem. 1972, 48, 317-338). IC50, nH and Ki values were expressed as geometrical mean.

T1 sequence (P50406 whole entry): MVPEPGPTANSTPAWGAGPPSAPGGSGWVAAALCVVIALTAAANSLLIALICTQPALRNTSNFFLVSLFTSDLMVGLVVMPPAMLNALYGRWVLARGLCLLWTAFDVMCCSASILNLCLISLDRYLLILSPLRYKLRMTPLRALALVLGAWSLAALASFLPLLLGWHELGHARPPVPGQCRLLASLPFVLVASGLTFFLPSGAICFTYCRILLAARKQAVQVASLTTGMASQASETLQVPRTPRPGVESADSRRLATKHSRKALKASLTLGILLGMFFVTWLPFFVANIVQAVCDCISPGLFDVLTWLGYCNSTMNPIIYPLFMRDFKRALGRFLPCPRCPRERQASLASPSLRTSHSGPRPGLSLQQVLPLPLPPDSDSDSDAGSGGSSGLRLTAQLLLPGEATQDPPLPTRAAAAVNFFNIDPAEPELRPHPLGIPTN

Structure (SMILES)	Ki
O=S(=O)(Nc1ccc(F)c(N2CCNCC2)c1)c1cccc(OC(F)F)c1 [Example 26, 3-Difluoromethoxy-N-(4-fluoro-3-piperazin-1-yl-phenyl)-benzenesulfonamide Hydrochloride]	< 50 nM

Same assay, conditions: membranes of HEK293 cells expressing h-5-HT6 receptor, 1 nM [3H]-LSD; read-out: Ki(5HT6)

Structure (SMILES)	Ki
COc1ccc(NS(=O)(=O)c2cccc(OC(F)F)c2)cc1N1CCNCC1 [Example 1, 3-Difluoromethoxy-N-(4-methoxy-3-piperazin-1-yl-phenyl)-benzenesulfonamide Hydrochloride]	< 10 nM
COc1ccc(N(C)S(=O)(=O)c2cccc(OC(F)F)c2)cc1N1CCNCC1 [Example 2, 3-Difluoromethoxy-N-(4-methoxy-3-piperazin-1-yl-phenyl)-N-methyl-benzene-sulfonamide Hydrochloride]	< 20 nM
COc1ccc(NS(=O)(=O)c2ccc(OC(F)F)cc2)cc1N1CCN(C)CC1 [Example 3, 4-Difluoromethoxy-N-[4-methoxy-3-(4-methyl-piperazin-1-yl)-phenyl]-benzenesulfonamide]	< 20 nM
COc1ccc(NS(=O)(=O)c2cccc3c2OC(F)(F)O3)cc1N1CCNCC1 [Example 4, 2,2-Difluoro-benzo[1,3]dioxole-4-sulfonic Acid (4-methoxy-3-piperazin-1-yl-phenyl)-amide Hydrochloride]	< 10 nM
O=S(=O)(Nc1ccc(OC(F)(F)F)c(N2CCNCC2)c1)c1cccc(OC(F)F)c1 [Example 6, 3-Difluoromethoxy-N-(3-piperazin-1-yl-4-trifluoromethoxy-phenyl)-benzenesulfonamide]	< 20 nM
O=S(=O)(Nc1ccc(OC(F)F)c(N2CCNCC2)c1)c1ccccc1OC(F)F [Example 7, 2-Difluoromethoxy-N-(3-piperazin-1-yl-4-difluoromethoxy-phenyl)-benzenesulfonamide Trifluoroacetate]	< 50 nM
COc1ccc(NS(=O)(=O)c2cc(OC(F)F)ccc2OC)cc1N1CCNCC1 [Example 8, 5-Difluoromethoxy-2-methoxy-N-(4-methoxy-3-piperazin-1-yl-phenyl)-benzene-sulfonamide Hydrochloride]	< 10 nM
COc1c(F)cc(NS(=O)(=O)c2cccc(OC(F)F)c2)cc1N1CCNCC1 [Example 9, 3-Difluoromethoxy-N-(3-fluoro-4-methoxy-5-piperazin-1-yl-phenyl)-benzenesulfonamide Hydrochloride]	< 50 nM
COc1c(F)cc(NS(=O)(=O)c2cccc3c2OC(F)(F)O3)cc1N1CCNCC1 [Example 10, 2,2-Difluoro-benzo[1,3]dioxole-4-sulfonic acid (3-fluoro-4-methoxy-5-piperazin-1-yl-phenyl)-amide Hydrochloride]	< 10 nM
O=S(=O)(Nc1ccc(OCCF)c(N2CCNCC2)c1)c1cccc(OC(F)F)c1 [Example 11, 3-Difluoromethoxy-N-[4-(2-fluoroethoxy)-3-piperazin-1-yl-phenyl]-benzenesulfonamide Hydrochloride]	< 10 nM
O=S(=O)(Nc1ccc(OCCF)c(N2CCNCC2)c1)c1cccc2c1OC(F)(F)O2 [Example 12, 2,2-Difluoro-benzo[1,3]dioxole-4-sulfonic acid (4-(2-fluoroethoxy)-5-piperazin-1-yl-phenyl)-amide Hydrochloride]	< 50 nM
COc1ccc(S(=O)(=O)Nc2ccc(OC)c(N3CCNCC3)c2)cc1OC(F)F [Example 13, 3-Difluoromethoxy-4-methoxy-N-(4-methoxy-3-piperazin-1-yl-phenyl)-benzenesulfonamide Hydrochloride]	< 10 nM
COc1ccc(NS(=O)(=O)c2ccccc2OC(F)F)cc1N1CCNCC1 [Example 14, 2-Difluoromethoxy-N-(4-methoxy-3-piperazin-1-yl-phenyl)-benzenesulfonamide Trifluoroacetate]	< 10 nM
COc1ccc(NS(=O)(=O)c2ccc(OC(F)F)cc2)cc1N1CCNCC1 [Example 15, 4-Difluoromethoxy-N-(4-methoxy-3-piperazin-1-yl-phenyl)-benzenesulfonamide Hydrochloride]	< 50 nM
CCN(c1ccc(OC)c(N2CCN(C)CC2)c1)S(=O)(=O)c1cccc(OC(F)F)c1 [Example 16, 3-Difluoromethoxy-N-ethyl-N-[4-methoxy-3-(4-methyl-piperazin-1-yl)-phenyl]-benzenesulfonamide Hydrochloride]	< 10 nM
COc1ccc(N(CCCF)S(=O)(=O)c2cccc(OC(F)F)c2)cc1N1CCNCC1 [Example 17, 3-Difluoromethoxy-N-(3-fluoropropyl)-N-(4-methoxy-3-piperazin-1-yl-phenyl)-benzenesulfonamide Hydrochloride]	< 50 nM
CCCN(c1ccc(OC)c(N2CCNCC2)c1)S(=O)(=O)c1cccc(OC(F)F)c1 [Example 18, 3-Difluoromethoxy-N-(4-methoxy-3-piperazin-1-yl-phenyl)-N-propyl-benzene-sulfonamide Hydrochloride]	< 50 nM
COc1cc(Cl)c(NS(=O)(=O)c2cccc(OC(F)F)c2)cc1N1CCNCC1 [Example 19, N-(2-Chloro-4-methoxy-5-piperazin-1-yl-phenyl)-3-difluoromethoxy-benzene-sulfonamide Trifluoroacetate]	< 50 nM
CN1CCN(c2cc(NS(=O)(=O)c3cccc(OC(F)F)c3)ccc2OC(F)(F)F)CC1 [Example 20, 3-Difluoromethoxy-N-[3-(4-methyl-piperazin-1-yl)-4-trifluoromethoxy-phenyl]-benzenesulfonamide Hydrochloride]	< 10 nM
COc1ccc(N(C)S(=O)(=O)c2cccc3c2OC(F)(F)O3)cc1N1CCN(C)CC1 [Example 21, 2,2-Difluoro-benzo[1,3]dioxole-4-sulfonic acid [4-methoxy-3-(4-methyl-piperazin-1-yl)-phenyl]-methyl-amide Hydrochloride]	< 50 nM
CCN(c1ccc(OC)c(N2CCNCC2)c1)S(=O)(=O)c1cccc2c1OC(F)(F)O2 [Example 22, 2,2-Difluoro-benzo[1,3]dioxole-4-sulfonic acid ethyl-(4-methoxy-3-piperazin-1-yl-phenyl)-amide Hydrochloride]	< 50 nM
COc1ccc(N(C)S(=O)(=O)c2cccc3c2OC(F)(F)O3)cc1N1CCNCC1 [Example 23, 2,2-Difluoro-benzo[1,3]dioxole-4-sulfonic acid methyl-(4-methoxy-3-piperazin-1-yl-phenyl)-amide Hydrochloride]	< 50 nM
COc1ccc(N(C)S(=O)(=O)c2cccc(OC(F)F)c2)cc1N1CCN(C)CC1 [Example 24, 3-Difluoromethoxy-N-[4-methoxy-3-(4-methyl-piperazin-1-yl)-phenyl]-N-methyl-benzenesulfonamide Hydrochloride]	< 10 nM
COc1ccc(NS(=O)(=O)c2cccc(OC(F)F)c2)cc1N1CCN(C)CC1 [Example 25, 3-Difluoromethoxy-N-[4-methoxy-3-(4-methyl-piperazin-1-yl)-phenyl]-benzenesulfonamide]	< 10 nM
O=S(=O)(Nc1ccc(F)c(N2CCNCC2)c1)c1cccc2c1OC(F)(F)O2 [Example 27, 2,2-Difluoro-benzo[1,3]dioxole-4-sulfonic acid (4-fluoro-3-piperazin-1-yl-phenyl)-amide Hydrochloride]	< 50 nM
O=S(=O)(Nc1cccc(N2CCNCC2)c1)c1cccc(OC(F)F)c1 [Example 28, 3-Difluoromethoxy-N-(3-piperazin-1-yl-phenyl)-benzenesulfonamide Hydrochloride]	< 50 nM
O=S(=O)(Nc1cccc(N2CCNCC2)c1)c1cccc2c1OC(F)(F)O2 [Example 29, 2,2-Difluoro-benzo[1,3]dioxole-4-sulfonic acid (3-piperazin-1-yl-phenyl)-amide Hydrochloride]	< 10 nM
